Source: ChEMBL document CHEMBL1127699, “Inhibitors of acyl-CoA:cholesterol acyltransferase. 1. Synthesis and hypocholesterolemic activity of dibenz[b,e]oxepin-11-carboxanilides” (J Med Chem, 1994)

Experiments:
[1] = target: T1, Acyl-CoA:cholesterol acyltransferase (Oryctolagus cuniculus) (UniProt Q95214); assay: In vitro inhibitory activity against Acyl coenzyme A:cholesterol acyltransferase in liver microsomes isolated from cholesterol-fed rabbits; conditions: Microsome, concentration not given here
T1 sequence (whole entry): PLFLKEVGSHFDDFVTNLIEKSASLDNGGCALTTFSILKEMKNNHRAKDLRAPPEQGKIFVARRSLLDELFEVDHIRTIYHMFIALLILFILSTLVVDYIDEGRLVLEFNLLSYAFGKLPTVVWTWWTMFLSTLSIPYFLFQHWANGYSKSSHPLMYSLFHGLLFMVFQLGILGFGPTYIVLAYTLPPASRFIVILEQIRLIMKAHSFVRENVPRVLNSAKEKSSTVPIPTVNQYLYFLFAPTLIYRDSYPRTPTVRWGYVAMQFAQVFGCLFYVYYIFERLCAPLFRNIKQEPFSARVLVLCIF

[2] = target: T2, Acyl-CoA:cholesterol acyltransferase (Oryctolagus cuniculus, UniProt Q95214); assay: In vitro inhibitory activity against acyl coenzyme A:cholesterol acyltransferase in liver microsomes isolated from cholesterol-fed rabbits; design: species or system Microsome
T2 sequence (Q95214 whole entry): T1 sequence (whole entry)

Cricetinae gen. sp. [3] = assay: In vivo hypocholesterolemic activity in golden hamsters, fed with a diet containing 2% cholesterol at a dose of 100 mg/kg; assay type: functional, Mesocricetus auratus
Cricetinae gen. sp. [4] = assay: (§1) In vivo hypocholesterolemic activity in golden hamsters, fed with a diet containing 2% cholesterol at a dose of 10 mg/kg, po; assay type: functional
Rattus norvegicus [5] = assay: Effect on liver cholesterol levels in male Dawley rats at a dose of 3 mg/kg/day, po (p<=0.01); assay type: functional
Rattus norvegicus [6] = assay: Effect on liver cholesterol levels in male Dawley rats at a dose of 30 mg/kg/day, po (p<=0.01); assay type: functional
Rattus norvegicus [7] = assay: Effect on serum cholesterol levels in male Dawley rats at a dose of 1 mg/kg/day, po (p<=0.05); assay type: functional
Rattus norvegicus [8] = assay: Effect on serum cholesterol levels in male Dawley rats at a dose of 10 mg/kg/day, po (p<=0.01); assay type: functional
Rattus norvegicus [9] = assay: Effect on serum cholesterol levels in male Dawley rats at a dose of 3 mg/kg/day, po (p<=0.01); assay type: functional
Rattus norvegicus [10] = assay: Effect on serum cholesterol levels in male Dawley rats at a dose of 30 mg/kg/day, po (p<=0.01); assay type: functional
Rattus norvegicus [11] = assay: Effect on liver cholesterol levels in male Dawley rats at a dose of 1 mg/kg/day, po (p<=0.01); assay type: functional
Rattus norvegicus [12] = assay: Effect on liver cholesterol levels in male Dawley rats at a dose of 10 mg/kg/day, po (p<=0.01); assay type: functional
Mesocricetus auratus = assay: In vivo hypocholesterolemic activity in golden hamsters, fed with a diet containing 2% cholesterol at a dose of 30 mg/kg, po
Cricetinae gen. sp. [13] = assay: as §1; assay type: functional, Mesocricetus auratus
Cricetinae gen. sp. [14] = assay: (§2) In vivo hypocholesterolemic activity in golden hamsters, fed with a diet containing 2% cholesterol at a dose of 30 mg/kg, po; assay type: functional, Mesocricetus auratus
[15] = target: T1, Acyl-CoA:cholesterol acyltransferase (Oryctolagus cuniculus); assay: In vitro inhibitory activity against Acyl coenzyme A:cholesterol acyltransferase in liver microsomes isolated from cholesterol-fed rabbits at 1 uM; conditions: Microsome
Cricetinae gen. sp. [16] = assay: as §2; assay type: functional, Cricetulus griseus

Row | IC50 [2] [nM] | SMILES | Reduction (Cricetinae gen. sp. [3]) [%] | also measured
1 | – | CC(C)c1cccc(C(C)C)c1/N=C(\S)C1c2ccccc2COc2ccc(Br)cc21 (configuration not stated) | – | inhibition [1]: 33%
2 | 940 | O=C(Nc1c(Cl)cccc1Cl)C1c2ccccc2COc2cc(Br)ccc21 (configuration not stated) | – | –
3 | 270 | CCc1cccc(CC)c1NC(=O)C1c2ccccc2COc2ccc(C)cc21 (configuration not stated) | 49 | –
4 | 190 | Cc1ccc2c(c1)C(C(=O)Nc1c(Br)cccc1Br)c1ccccc1CO2 (configuration not stated) | 6 | –
5 | 110 | Cc1cc(C)c(NC(=O)C2c3ccccc3COc3ccc(C)cc32)c(C)c1 (configuration not stated) | – | –
6 | – | CC(C)c1cccc(C(C)C)c1NC(=O)C1c2ccccc2COc2ccc(C(=O)O)cc21 (configuration not stated) | – | inhibition [1]: 1%
7 | 500 | CCc1cccc(CC)c1NC(=O)C1c2ccccc2COc2ccc(C(C)C)cc21 (configuration not stated) | 25 | –
8 | 40 | CC(C)c1cccc(C(C)C)c1NC(=O)C1c2ccccc2CCc2ccccc21 | – | Reduction (Cricetinae gen. sp. [13]): 3%; Reduction (Cricetinae gen. sp. [14]): 89%
9 | 350 | Cc1ccc2c(c1)C(C(=O)Nc1c(C)cccc1C)c1ccccc1CO2 (configuration not stated) | 25 | –
10 | 580 | O=C(Nc1ccc(F)cc1F)C1c2ccccc2COc2ccc(Br)cc21 (configuration not stated) | – | –
11 | – | CCCCCCCN(Cc1ccc(CC(C)(C)C)cc1)C(=O)Nc1ccc(F)cc1F [CL-277082] | – | Reduction (Cricetinae gen. sp. [13]): 35%; Reduction (Cricetinae gen. sp. [14]): 71%
12 | 100 | Cc1cc(Br)c2c(c1)C(C(=O)Nc1c(C(C)C)cccc1C(C)C)c1ccccc1CO2 (configuration not stated) | – | Reduction (Mesocricetus auratus): 67%
13 | 27 | COC(=O)c1cc(C)cc2c1OCc1ccccc1C2C(=O)Nc1c(C(C)C)cccc1C(C)C (configuration not stated) | – | Reduction (Cricetinae gen. sp. [4]): 28%; Reduction (Mesocricetus auratus): 84%
14 | 25 | CC(C)c1cccc(C(C)C)c1NC(=O)C1c2ccccc2C=Cc2ccccc21 | – | Reduction (Cricetinae gen. sp. [14]): 73%
15 | 130 | CCc1ccc2c(c1)C(C(=O)Nc1c(C(C)C)cccc1C(C)C)c1ccccc1CO2 (configuration not stated) | 51 | –
16 | 64 | Cc1cc2c(cc1C)C(C(=O)Nc1c(C(C)C)cccc1C(C)C)c1ccccc1CO2 (configuration not stated) | – | Reduction (Mesocricetus auratus): 27%
17 | – | Cc1ccc2c(c1)C(/C(S)=N/c1c(C(C)C)cccc1C(C)C)c1ccccc1CO2 (configuration not stated) | – | inhibition [15]: 15%
18 | 180 | COC(=O)c1ccc2c(c1)C(C(=O)Nc1c(C(C)C)cccc1C(C)C)c1ccccc1CO2 (configuration not stated) | 89 | –
19 | 140 | COc1ccc2c(c1)C(C(=O)Nc1c(C(C)C)cccc1C(C)C)c1ccccc1CO2 (configuration not stated) | – | Reduction (Mesocricetus auratus): 22%
20 | 39 | CC(C)c1cccc(C(C)C)c1NC(=O)C1c2ccccc2CCc2ccc(Br)cc21 (configuration not stated) | – | Reduction (Cricetinae gen. sp. [13]): 42%
21 | 420 | CC(C)(C)c1ccc2c(c1)C(C(=O)Nc1c(Cl)cccc1Cl)c1ccccc1CO2 (configuration not stated) | – | –
22 | 55 | Cc1ccc2c(c1)C(C(=O)Nc1c(C(C)C)cccc1C(C)C)c1ccccc1CC2 (configuration not stated) | – | Reduction (Cricetinae gen. sp. [13]): -1%; Reduction (Cricetinae gen. sp. [14]): 93%
23 | 160 | CC(C)c1cccc(C(C)C)c1NC(=O)C1c2ccccc2COc2ccc(C(F)(F)F)cc21 (configuration not stated) | – | Reduction (Mesocricetus auratus): 63%
24 | 580 | COc1cc(OC)c(NC(=O)C2c3ccccc3COc3ccc(C)cc32)c(OC)c1 (configuration not stated) | – | –
25 | 190 | Cc1ccc2c(c1)C(C(=O)Nc1c(Cl)cccc1Cl)c1ccccc1CO2 (configuration not stated) | 25 | –
26 | 190 | CC(C)c1cccc(C(C)C)c1NC(=O)C1c2cc(Br)ccc2COc2ccccc21 (configuration not stated) | – | Reduction (Mesocricetus auratus): 8%

Row | IC50 [2] [nM] | SMILES | Reduction (Cricetinae gen. sp. [3]) [%] | also measured
27 | 250 | CCc1cccc(CC)c1NC(=O)C1c2ccccc2COc2ccc(Br)cc21 (configuration not stated) | 64 | –
28 | 74 | O=C(Nc1c(Cl)cccc1Cl)C1c2ccccc2COc2ccc(Br)cc21 (configuration not stated) | – | Reduction (Mesocricetus auratus): 0%
29 | 360 | Cc1cccc(C)c1NC(=O)C1c2ccccc2COc2ccc(C(C)C)cc21 (configuration not stated) | – | –
30 | 150 | CC(C)c1cccc(C(C)C)c1NC(=O)C1c2ccccc2COc2ccc(Cl)cc21 (configuration not stated) | 97 | –
31 | 640 | CC(C)c1cccc(C(C)C)c1NC(=O)C1c2ccccc2OCc2ncccc21 (configuration not stated) | – | –
32 | 50 | Cc1ccc2c(c1)C(C(=O)Nc1c(C(C)C)cccc1C(C)C)c1ccccc1CO2 (configuration not stated) | 106 | Reduction (Mesocricetus auratus): 70%
33 | 120 | Cc1ccc2c(c1)C(C(=O)Nc1c(C(C)C)cccc1C(C)C)c1cc(Br)ccc1CO2 (configuration not stated) | – | Reduction (Mesocricetus auratus): 17%
34 | 35 | CC(C)c1cccc(C(C)C)c1NC(=O)C1c2ccccc2COc2ccc(I)cc21 (configuration not stated) | – | Reduction (Mesocricetus auratus): 73%
35 | – | Cc1ccc2c(c1)C(C(=O)Nc1ccccc1)c1ccccc1CO2 (configuration not stated) | 10 | inhibition [1]: 15%
36 | 94 | CC(C)c1cccc(C(C)C)c1NC(=O)C1c2ccccc2COc2ccccc21 (configuration not stated) | 2 | –
37 | 240 | CC(C)c1cccc(C(C)C)c1NC(=O)C1c2ccccc2C(=O)N(C)c2ccc(Br)cc21 (configuration not stated) | – | –
38 | 7 | CSc1ccc2c(c1)C(C(=O)Nc1c(C(C)C)cccc1C(C)C)c1ccccc1CO2 (configuration not stated) | – | Reduction (Mesocricetus auratus): 5%
39 | 500 | Cc1cccc(C)c1NC(=O)C1c2ccccc2COc2ccc(C(C)(C)C)cc21 (configuration not stated) | -42 | –
40 | 580 | CC(C)c1cccc(C(C)C)c1NC(=O)C1c2ccccc2COc2ccc(CO)cc21 (configuration not stated) | – | –
41 | 400 | CC(C)c1cccc(C(C)C)c1NC(=O)C1c2ccccc2COc2ccc(C(=O)N(C)C)cc21 (configuration not stated) | – | –
42 | 240 | CC(C)c1cccc(C(C)C)c1NC(=O)C1c2ccccc2COc2ccc([N+](=O)[O-])cc21 (configuration not stated) | – | –
43 | 730 | Cc1ccc2c(c1)C(C(=O)Nc1ccccc1C(C)C)c1ccccc1CO2 (configuration not stated) | 18 | –
44 | 150 | CC(C)c1cccc(C(C)C)c1NC(=O)C1c2ccccc2CSc2ccc(Br)cc21 (configuration not stated) | – | Reduction (Cricetinae gen. sp. [14]): 67%
45 | 58 | CC(C)c1cccc(C(C)C)c1NC(=O)C1c2cc(Br)ccc2COc2ccc(Br)cc21 (configuration not stated) | – | Reduction (Mesocricetus auratus): 40%
46 | 180 | CC(C)c1cccc(C(C)C)c1NC(=O)C1c2ccccc2COc2cc(Br)ccc21 (configuration not stated) | -2 | –
47 | 260 | Cc1ccc2c(c1)C(C(=O)Nc1c(C)cccc1Cl)c1ccccc1CO2 (configuration not stated) | – | –
48 | – | Cc1cc(C(=O)O)c2c(c1)C(C(=O)Nc1c(C(C)C)cccc1C(C)C)c1ccccc1CO2 (configuration not stated) | – | inhibition [1]: 28%
49 | 490 | CC(C)c1cccc(C(C)C)c1NC(=O)C1c2ccccc2COc2ccc(C#N)cc21 (configuration not stated) | – | eduction (Cricetinae gen. sp. [16]): -6%
50 | 78 | CC(C)c1cccc(C(C)C)c1NC(=O)C1c2cc(Br)ccc2OCc2ncccc21 (configuration not stated) | – | Reduction (Mesocricetus auratus): 47%
51 | 210 | CC(C)c1cccc(C(C)C)c1NC(=O)C1c2ccccc2COc2ccc(F)cc21 (configuration not stated) | 53 | –

Row | SMILES | IC50 [2] [nM] | Reduction (Cricetinae gen. sp. [3]) [%] | also measured
52 | CC(C)c1cccc(C(C)C)c1NC(=O)C1c2ccccc2COc2ccc(Br)cc21 (configuration not stated) | 23 | 143 | Reduction (Cricetinae gen. sp. [4]): 101%; Cholesterol level (Rattus norvegicus [5]): 15 mg/g; Cholesterol level (Rattus norvegicus [6]): 6.3 mg/g; Cholesterol level (Rattus norvegicus [7]): 214 mg/dL; Cholesterol level (Rattus norvegicus [8]): 114 mg/dL; Cholesterol level (Rattus norvegicus [9]): 167 mg/dL; Cholesterol level (Rattus norvegicus [10]): 108 mg/dL; Cholesterol level (Rattus norvegicus [11]): 19.2 mg/g; Cholesterol level (Rattus norvegicus [12]): 10.4 mg/g; Reduction (Mesocricetus auratus): 114%
